Reference: patent US11672868B2, “Bicyclic peptide ligands specific for MT1-MMP” (priority 2014, dated 2023)
Read-outs that look alike come from different tables or passages of the source. Marks after values point to notes of the source that are not given here. Numbered stars: 1 amine (or outer) side, 2 acyl side, 3 side chain; on linkers, the order of the positions; unused ones are H or OH. Bridge positions count the residues as written; N and C are the ends. Square brackets hold non-standard residues; d marks the D form. Peptide text beside a SMILES is read from it. * marks the point of attachment. X1 = COc1cc2cc(c1Cl)N(C)C(=O)C[C@H](OC(=O)[C@H](C)N(C)C(=O)CCC(C)(C)SSCCCC(=O)*)[C@]1(C)O[C@H]1[C@H](C)[C@@H]1C[C@@](O)(NC(=O)O1)[C@H](OC)/C=C/C=C(\C)C2; X2 = COc1cc2cc(c1Cl)N(C)C(=O)C[C@H](OC(=O)[C@H](C)N(C)C(=O)CCC(C)SSC(C)CCC(=O)*)[C@]1(C)O[C@H]1[C@H](C)[C@@H]1C[C@@](O)(NC(=O)O1)[C@H](OC)/C=C/C=C(\C)C2; 1Nal = N[C@@H](Cc1cccc2ccccc12)C(=O)O; TBMB = c1c(C[*:1])cc(C[*:3])cc1C[*:2]; Tle = CC(C)(C)[C@H](N)C(=O)O; βAla = NCCC(=O)O; Sar = CNCC(=O)O

Tests used:
[1] = Plasma stability, quantitative LC-MS (Method #2); format: in vitro ADME, human; details: for half-life at 4 μM: read-out: t1/2 (hrs) (human plasma) (converted)
Protocol: […] […] Prior to LC-MS analysis, samples were defrosted, and mixed with 3 volumes (here, 120 μL) of 1:1 acetonitrile/MeOH water. The milky suspensions were centrifuged for 30 min at 13000 rpm, and peptide-containing supernatants were quantitated for doubly/triply charged species and MS/MS fragments thereof using a Waters Xevo TQ-D instrument, while using a plasma extracted standard curve of the same peptides as a reference. The half-life of degradation in plasma was used to assess the comparative stability of the molecules.

[2] = Plasma stability, quantitative LC-MS; format: in vitro ADME; details: rat, incubation up to 24 hrs, 4 μM BDC, read-out: t1/2 (hrs) (rat plasma) (converted)
Protocol: (§1) The four BDCs were assessed for several in vitro parameters such as retention of potency to the human MT1-MMP hemopexin domain, stability in ex vivo mouse, rat and human plasma, and stability to reducing agents such as dithiothreitol.

[3] = Plasma stability, quantitative LC-MS (Method #2); format: in vitro ADME, mouse; details: for half-life at 4 μM: mouse, quantitative LC-MS, incubation up to 24 hrs, 4 μM BDC, read-out: t1/2 (hrs) (mouse plasma) (converted)
Protocol: To obtain plasma stability of bicyclic peptides quantitatively, peptide stock solutions (200 μM in DMSO) were mixed with plasma (human or mouse), such that final concentrations were 10 μM. 40 μL samples were taken periodically up to 8 hrs and frozen at −80° C. Prior to LC-MS analysis, samples were defrosted, and mixed with 3 volumes (here, 120 μL) of 1:1 acetonitrile/MeOH water. The milky suspensions were centrifuged for 30 min at 13000 rpm, and peptide-containing supernatants were quantitated for doubly/triply charged species and MS/MS fragments thereof using a Waters Xevo TQ-D instrument, while using a plasma extracted standard curve of the same peptides as a reference. The half-life of degradation in plasma was used to assess the comparative stability of the molecules.

MT1-MMP hemopexin domain [4] = test: FP competition, species cross-reactivity (dog); format: binding; details: Table 13
Text: (§2) Here, a pre-formed complex of PEX with the fluorescent PEX-binding tracer is titrated with free, non-fluoresceinated bicyclic peptide. Since all 17-69-based peptides are expected to bind at the same site, the titrant will displace the fluorescent tracer from PEX. Dissociation of the complex can be measured quantitatively, and the Kd of the competitor (titrant) to the target protein determined. The advantage of the competition method is that the affinities of non-fluoresceinated bicyclic peptides can be determined accurately and rapidly.
(§3) Subsequently, the non-fluorescent competitor bicyclic peptide (usually just the bicycle core sequence) is titrated, such that it displaces the fluorescent tracer from the target protein. The displacement of the tracer is measured and associated with a drop in fluorescence polarisation. The drop in fluorescence polarisation is proportional to the fraction of target protein bound with the non-fluorescent titrant, and thus is a measure of the affinity of titrant to target protein.
(§4) The raw data is fit to the analytical solution of the cubic equation that describes the equilibria between fluorescent tracer, titrant, and binding protein. The fit requires the value of the affinity of fluorescent tracer to the target protein, which can be determined separately by direct binding FP experiments (see previous section). […]

[5] = target: T1, MT1-MMP hemopexin domain (PEX) (Homo sapiens, UniProt P50281); test: Competition assay using fluorescence polarisation; format: binding
T1 construct: residues Cys319-Gly511 from the human gene; His6 (N); made in house; host or cells: HEK293 (transient, pEXPR-IBA42 vector)
Text: as §2, §3
The raw data is fit to the analytical solution of the cubic equation that describes the equilibria between fluorescent tracer, titrant, and binding protein. The fit requires the value of the affinity of fluorescent tracer to the target protein, which can be determined separately by direct binding FP experiments (see previous section).

[6] = Stability to reducing agent dithiothreitol (DTT); format: physicochemical; details: Bicycle Drug Conjugates, quantitative LC-MS
Protocol: as §1

[7] = Kellogg et al (2011), cited from earlier work; for fold reduction in sensitivity to a reducing agent such as dithiothreitol: in the antibody drug conjugate context, compared to the non-hindered disulphide; for Relative Stability to DTT (ADC): values relate to antibody drug conjugates containing the same disulphide linker
[8] = system: human lung squamous cell carcinoma line EBC-1; test: Efficacy in EBC-1 xenograft mice; format: in vivo, mouse; details: for efficacy in EBC-1 xenograft / tolerability / body weight: EBC-1 xenograft; for ED50, effective dose to achieve 50% tumour AUC reduction: mouse bearing EBC-1 tumours, ± 95% confidence limit
Protocol: In vivo efficacy of BT17BDC-17, BT17BDC-18, BT17BDC-19 and BT17BDC-20 All BDCs containing the stabilised bicycle core sequence were tested for their efficacies in in vivo mouse xenograft models, using the human lung squamous cell carcinoma line EBC-1.
The area under the curve (AUC) of tumour volume over time and BDC was taken and plotted against the corresponding dose group (FIG. 13).

MT1-MMP hemopexin domain [9] = target: T2, MT1-MMP hemopexin domain (Mus musculus, UniProt P53690); test: FP competition, species cross-reactivity (mouse); format: binding; details: Table 13
T2 construct: MT1-MMP hemopexin domain derived from other species
Text: as §2, §3, §4

[10] = human, human plasma, quantitative LC-MS, incubation up to 24 hrs, 4 μM BDC

Row | SMILES | half-life at 4 μM [1, 10] | half-life at 4 μM ([2]; rat plasma (ex vivo)) | half-life at 4 μM ([3]; mouse plasma) | Kd (MT1-MMP hemopexin domain [4]) | half-life at 4 μM ([2]; plasma) | Relative Stability to DTT (BDC) [6] | fold reduction in sensitivity to a reducing agent such as dithiothreitol [7] | Relative Stability to DTT (ADC) [7] | half-life at 4 μM ([3]; plasma) | efficacy in EBC-1 xenograft [8] | tolerability / body weight [8] | ED50, effective dose to achieve 50% tumour AUC reduction [8] | other results
1 | CC[C@H](C)[C@@H]1NC(=O)[C@H](CC(=O)O)NC(=O)[C@H](Cc2ccc(O)cc2)NC(=O)[C@H](Cc2ccccc2)NC(=O)[C@H](CC(=O)O)NC(=O)[C@H](CCC(=O)O)NC(=O)[C@@H]2CSCc3cc(cc(c3)CSC[C@H](NC(=O)[C@H](C)NC(=O)CN(C)C(=O)CN(C)C(=O)CN(C)C(=O)CN(C)C(=O)CN(C)C(=O)CN(C)C(=O)CN(C)C(=O)CN(C)C(=O)CN(C)C(=O)CN(C)C(=O)CN)C(=O)N[C@@H](Cc3ccc(O)cc3)C(=O)N[C@@H](CC(N)=O)C(=O)N[C@@H](CCC(=O)O)C(=O)N[C@@H](Cc3ccccc3)C(=O)NCC(=O)N2)CSC[C@@H](C(N)=O)NC1=O [17-69-07-N219, G-Sar10-A-(17-69-07)] (H-G[Sar][Sar][Sar][Sar][Sar][Sar][Sar][Sar][Sar][Sar]ACYNEFGCEDFYDIC-NH2; linker 13-19-26 via TBMB; C-terminus assumed) | 30.3 ± 4.7 h | 3.7 h | 3.9 ± 0.3 h | 0.9 nM |  |  |  |  |  |  |  |  | half-life at 10 μM ([1]; human, human plasma, 37° C., sentence prints mouse plasma, read-out: half-life of the peptide in plasma (FIG. 3B, human plasma stability) (converted)): 360 min; half-life at 10 μM ([3]; ex vivo mouse plasma at 37° C., Method #2 (FIG. 1, FIG. 3A), read-out: half-life of the peptide in mouse plasma (converted)): 360 min; Kd ([5]; Table 12, molecules selected for plasma stability assessment, read-out: Kd): 0.82 ± 0.09 nM; Kd ([5]; Table 13, Human/cyno MT1-MMP hemopexin domain, FP competition, read-out: Human/cyno (Kd)): 0.82 nM; Kd ([5]; Table 16, FP competition, footnote e: 17-69-07-N004 as tracer, read-out: Kd (nM) (Hemopexin domain)): 0.82 ± 0.09 nM; Kd ([5]; read-out: Kd, affinity to PEX / MT1-MMP): 0.82 nM
2 | COc1cc2cc(c1Cl)N(C)C(=O)C[C@H](OC(=O)[C@H](C)N(C)C(=O)CCC(C)(C)SSCCCC(=O)NCCC(=O)N(C)CC(=O)N(C)CC(=O)N(C)CC(=O)N(C)CC(=O)N(C)CC(=O)N(C)CC(=O)N(C)CC(=O)N(C)CC(=O)N(C)CC(=O)N(C)CC(=O)N[C@@H](C)C(=O)N[C@H]1CSCc3cc4cc(c3)CSC[C@H](NC(=O)[C@@H](C)NC(=O)[C@H](Cc3cccc5ccccc35)NC(=O)[C@H](CCC(=O)O)NC(=O)[C@H](CC(N)=O)NC(=O)[C@@H](C)NC1=O)C(=O)N[C@@H](CCC(=O)O)C(=O)N[C@@H](CC(=O)O)C(=O)N[C@@H](Cc1ccccc1)C(=O)N[C@@H](Cc1ccc(O)cc1)C(=O)N[C@@H](CC(=O)O)C(=O)N[C@@H](C(C)(C)C)C(=O)N[C@H](C(N)=O)CSC4)[C@]1(C)O[C@H]1[C@H](C)[C@@H]1C[C@@](O)(NC(=O)O1)[C@H](OC)/C=C/C=C(\C)C2 [BT17BDC-19] ({X1-βAla}-[Sar][Sar][Sar][Sar][Sar][Sar][Sar][Sar][Sar][Sar]AC[dA]NE[1Nal][dA]CEDFYD[Tle]C-NH2; linker 12-18-25 via TBMB) |  |  |  |  | > 36 h | 30 | 14 fold | 14 | > 36 h | efficacious | well tolerated at efficacious doses | 3.1 ± 1.6^b mg/kg | half-life at 4 μM ([1]; human, plasma, quantitative LC-MS, incubation up to 24 hrs, 4 μM BDC): > 14 h; t1/2 (hrs) (human plasma) ([1]; quantitative LC-MS, incubation up to 24 hrs, 4 μM BDC): 23.5 ± 4.1 h
3 | COc1cc2cc(c1Cl)N(C)C(=O)C[C@H](OC(=O)[C@H](C)N(C)C(=O)CCC(C)SSC(C)CCC(=O)NCCC(=O)N(C)CC(=O)N(C)CC(=O)N(C)CC(=O)N(C)CC(=O)N(C)CC(=O)N(C)CC(=O)N(C)CC(=O)N(C)CC(=O)N(C)CC(=O)N(C)CC(=O)N[C@@H](C)C(=O)N[C@H]1CSCc3cc4cc(c3)CSC[C@H](NC(=O)[C@@H](C)NC(=O)[C@H](Cc3cccc5ccccc35)NC(=O)[C@H](CCC(=O)O)NC(=O)[C@H](CC(N)=O)NC(=O)[C@@H](C)NC1=O)C(=O)N[C@@H](CCC(=O)O)C(=O)N[C@@H](CC(=O)O)C(=O)N[C@@H](Cc1ccccc1)C(=O)N[C@@H](Cc1ccc(O)cc1)C(=O)N[C@@H](CC(=O)O)C(=O)N[C@@H](C(C)(C)C)C(=O)N[C@H](C(N)=O)CSC4)[C@]1(C)O[C@H]1[C@H](C)[C@@H]1C[C@@](O)(NC(=O)O1)[C@H](OC)/C=C/C=C(\C)C2 (stereo partly drawn) [BT17BDC-20] ({X2-βAla}-[Sar][Sar][Sar][Sar][Sar][Sar][Sar][Sar][Sar][Sar]AC[dA]NE[1Nal][dA]CEDFYD[Tle]C-NH2; linker 12-18-25 via TBMB) |  |  |  |  | 34 ± 4 h | 93 | 170 fold | 170 | > 36 h | not efficacious | tolerated based on constant weight | 22 ± 13^b mg/kg | 
4 | C[C@H](NC(=O)CN(C)C(=O)CN(C)C(=O)CN(C)C(=O)CN(C)C(=O)CN(C)C(=O)CN(C)C(=O)CN(C)C(=O)CN(C)C(=O)CN(C)C(=O)CN(C)C(=O)CCN)C(=O)N[C@H]1CSCc2cc3cc(c2)CSC[C@H](NC(=O)[C@@H](C)NC(=O)[C@H](Cc2cccc4ccccc24)NC(=O)[C@H](CCC(=O)O)NC(=O)[C@H](CC(N)=O)NC(=O)[C@@H](C)NC1=O)C(=O)N[C@@H](CCC(=O)O)C(=O)N[C@@H](CC(=O)O)C(=O)N[C@@H](Cc1ccccc1)C(=O)N[C@@H](Cc1ccc(O)cc1)C(=O)N[C@@H](CC(=O)O)C(=O)N[C@@H](C(C)(C)C)C(=O)N[C@H](C(N)=O)CSC3 [17-69-07-N241, bAla-Sar10-A-(17-69-07) D-Ala1 1Nal4 D-Ala5 tBuGly11] (H-[βAla][Sar][Sar][Sar][Sar][Sar][Sar][Sar][Sar][Sar][Sar]AC[dA]NE[1Nal][dA]CEDFYD[Tle]C-NH2; linker 13-19-26 via TBMB; C-terminus assumed) | > 36 h | > 36 h | > 36 h | 1.4 nM |  |  |  |  |  |  |  |  | Kd (MT1-MMP hemopexin domain [9]): 0.63 nM
